Data set [1] concerns cathepsin S-dependent invariant chain processing. Nature of the data set: Cathepsin S-dependent invariant chain processing in Raji B cells. It counts as cell-based. To be noted: Homo sapiens, read-out: inhibition of cathepsin S-dependent invariant chain processing IC50.
Data set [2] concerns the target cathepsin L (Homo sapiens, UniProt P07711). Nature of the data set: Activity-based probe (125-I labeled DMK) assay in HUVEC, cathepsin L. It counts as cell-based. Details: endogenous in cells; host or cells: HUVEC. On the procedure:
(§1) FIG. 2. […] An activity-based probe assaying using 125-I labeled DMK reagent to assess the ability of Compound A to inhibit cathepsin L and cathepsin B protease activity in cells. In this assay human umbilical […] endothelial cells (HUVEC) are dosed with the indicated concentrations of Compound A in vitro. They are then incubated with the 125-I labeled activity probe for a short time, a cellular lysate produced, and the proteins analyzed biochemically by SDS PAGE. The gels are then imaged by autoradiography and the inhibition of protease activity, as assessed by the inhibition of activity probe binding, can be detected. FIG. 2b: Compound A inhibition of cathepsin S activity in the spleen in vivo as a function of time after dosing and plasma levels following a 10 mg/kg dose of the agent. […] The accumulation of the lip10 biomarker was tracked in spleen tissue samples taken from the treated animal. Accordingly, FIG. 2b. is based upon an assay which detects the accumulation of a proteolytic substrate of cathepsin S, the p10 fragment of invariant chain shown here as lip10, following dosing of Compound A in mice at 10 mg/kg/3 mice per time points are dosed with Compound A for the indicated times, and the spleens harvested and frozen. The level of lip10, an indicator cathepsin S inhibition is then detected using SDS PAGE and western blotting in lysates produced from the spleens. […]

A short description of data set [3]: Pharmacokinetic profile in mice. It counts as in vivo. On the procedure: (§2) FIG. 4. Pharmacokinetics of Compound A. FIG. 4a: Compound A pharmacokinetic profile in mice and rats. FIG. 4b. Single dose pharmacokinetics in the mouse following intravenous (1 mg/kg) and oral doses (5 mg/kg). Plasma concentration values vs. time.
Data set [4] addresses T1, cathepsin S (Mus musculus, UniProt O70370). Description: Accumulation of lip10 biomarker in spleen after dosing. The following applies: mice, 10 mg/kg. It counts as in vivo. More on the design: from tissue; host or cells: mouse spleen (in vivo dosing). Here is the method: as §1
The test system of data set [5] is tumor invasion. Nature of the data set: In vitro bioassay for tumor invasiveness. The data set is classed as cell-based.
The target of data set [6] is cathepsin B (Homo sapiens, UniProt P07858). Nature of the data set: Activity-based probe (125-I labeled DMK) assay in HUVEC, cathepsin B. It counts as cell-based. Details: endogenous in cells; host or cells: HUVEC. Here is the method:
as §1

Data set [7] addresses cathepsin S enzyme (Canis lupus familiaris, UniProt Q8HY81). Description: Cathepsin S enzyme across species: dog. It counts as biochemical.
Data set [8] has as its system angiogenesis. Description: In vitro bioassay for angiogenesis. The data set is classed as cell-based.
The test system of data set [9] is 66.1 cancer cells in the bone. Nature of the data set: Bone cancer pain study (breast cancer cells implanted in femur). The data set is classed as in vivo, mice. Here is the method: FIG. 3: Bone cancer and bone cancer pain study with Compound A. FIG. 3a: Protocol. Bone cancer pain study with Compound A. Dose groups: Vehicle, Zoledronate (100 μg/kg ) positive control, Compound A (100 mg/kg, daily dosing, SC, days 7-21), 10 animals per group Control animals were injected with media (and no tumor cells) in the femur. FIGS. 3b-3d. Left to right: Sham/media +Compound A, Cancer +vehicle, cancer +zoledronate, cancer +Compound A. FIG. 3b: Effects on bone destruction. […] Spontaneous Pain in the form of Flinching was attenuated by Compound Aon day 14 and day 21 with statistical significance, as compared to vehicle. […] Movement evoked pain was attenuated by Compound A on day 13 with statistical significance as compared to vehicle.
FIG. 6. Histology Analysis of Bone Samples in Bone Caner Pain Study. Representative bone sections from the study described in FIG. 3A were subjected to staining with the standard hematoxylin and eosin histological stain to visualize cellular structures in the bone. In FIG. 6, the pitting of the bone is shown and indicated from samples in the study arm with 66.1 cancer cells in the bone and dosed with vehicle control only, which is due to ostelytic activity induced by the presence of the 66.1 cancer cells in the bone.
FIG. 3a sets forth the treatment protocol for the bone cancer pain study with Compound A. Dose groups: Vehicle, Zoledronate (100 μg/kg) positive control, Compound A (100 mg/kg, daily dosing, SC, days 7-21), 10 animals per group. Mice were implanted with breast cancer cells in the femur on day 0 and treated with Compound A on days 7 through 21. On days 0, 7, 14, and 21 radiographic imaging, thermal hyperalgesia, tactile allodynia, movement-evoked and spontaneous pain measurements were taken. Pain measurements were made 6 hours after dosing. Control animals were injected with media (and no tumor cells) in the femur. […] Bone destruction was attenuated by Compound A on day 14 and day 21 as compared to vehicle. The efficacy was similar to that obtained with zoledronate (see, FIG. 3b). […] Spontaneous Pain in the form of Flinching was attenuated by Compound A on day 14 and day 21 with statistical significance, as compared to vehicle (see, FIG. 3d). […] Movement evoked pain was attenuated by Compound A on day 13 with statistical significance as compared to vehicle (see, FIG. 3e).
Compound A was dosed subcutaneously, at a 100 mg/kg dose once a day, in a nanoparticle-sized formulation suitable for subcutaneous dosing and diluted in D5W (sterile 5% dextrose in water). Dosing was initiated 7 days after the femur implantation of the 66.1 tumor cells and continued once a day.
The data in FIG. 6 is based on representative bone sections from the study described in FIG. 3A, which were subjected to staining with the standard histological stain hematoxylin and eosin, in order to visualize cellular structures in the bone. Visualized samples include bone sections from study animals with 66.1 tumor cells injected into bone and dosed with either vehicle control or compound A and also animals with media alone injected into bone and also dosed with compound A. Normal hemapoetic cells of the bone and the 66.1 cancer cells within the bone, as well as bone histomorphology, were visualized by this staining procedure. […] This is due to ostelytic activity induced by the presence of the 66.1 cancer cells in the bone.

The subject of data set [10] is multiple human cathepsin enzymes. Nature of the data set: Cathepsin inhibitory profile on multiple cathepsin enzymes. The data set is classed as biochemical. An excerpt:
FIG. 1. […] Methods are similar to those set forth in the Biological Examples.

In data set [11] the target is T1, cathepsin S. Nature of the data set: Cathepsin S enzyme across species: mouse. The data set is classed as biochemical.
Data set [12] in a line: Pharmacokinetic profile in rats. The data set is classed as in vivo. On the procedure: as §2
Data set [13] addresses cathepsin S enzyme (Rattus norvegicus, UniProt Q02765). Nature of the data set: Cathepsin S enzyme across species: rat. It counts as biochemical.
The mark [14] stands for this setting: day 14 and day 21, 100 mg/kg, daily, SC, compared to vehicle.

A value given as a limit tells only on which side of the number the result lay.

Chain of cathepsin L (P07711 114-333): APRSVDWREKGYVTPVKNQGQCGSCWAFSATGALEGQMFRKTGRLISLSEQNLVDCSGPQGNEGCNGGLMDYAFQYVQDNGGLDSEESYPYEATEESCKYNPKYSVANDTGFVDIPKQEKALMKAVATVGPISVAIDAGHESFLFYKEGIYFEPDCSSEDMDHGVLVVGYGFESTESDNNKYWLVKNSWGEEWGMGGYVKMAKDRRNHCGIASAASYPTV
Chain of cathepsin S enzyme (Canis lupus familiaris, UniProt Q8HY81) (Q8HY81 115-331): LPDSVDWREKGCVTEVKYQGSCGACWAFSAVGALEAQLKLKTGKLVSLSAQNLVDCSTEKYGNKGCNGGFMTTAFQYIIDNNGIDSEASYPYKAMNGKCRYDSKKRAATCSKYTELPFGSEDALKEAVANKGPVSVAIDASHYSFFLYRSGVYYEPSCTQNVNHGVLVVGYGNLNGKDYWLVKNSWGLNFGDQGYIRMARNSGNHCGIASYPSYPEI
Chain of cathepsin S enzyme (Rattus norvegicus, UniProt Q02765) (Q02765 113-330): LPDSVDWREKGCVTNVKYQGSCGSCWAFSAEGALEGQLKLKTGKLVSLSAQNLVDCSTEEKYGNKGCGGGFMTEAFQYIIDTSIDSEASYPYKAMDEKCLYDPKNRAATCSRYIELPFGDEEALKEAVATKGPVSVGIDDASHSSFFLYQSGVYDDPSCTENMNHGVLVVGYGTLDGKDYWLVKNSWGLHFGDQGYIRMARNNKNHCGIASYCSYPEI

Take `CC[C@H](NC(=O)[C@H](CS(=O)(=O)CC1CC1)N[C@@H](c1ccc(F)cc1)C(F)(F)F)C(=O)C(=O)NC1CC1` [Compound A, (S)—N-cyclopropyl-3-((R)-3-((cyclopropylmethyl)sulfonyl)-2-(((S)-2,2,2-trifluoro-1-(4-fluorophenyl)ethyl)amino)propanamido)-2-oxopentanamide]: the half-maximal inhibitory concentration (IC50) – broadly, the concentration that inhibits the measured activity by half – was < 10 nM in data set [1], 0.25 nM in [7], < 0.25 nM in data set [11] and 0.77 nM in [13]. Besides, the “inhibition of cathepsin L activity in endothelial cells, potency” value in data set [2] is on record as “single digit nanomolar potency”. The pharmacokinetics result in data set [3] and in [12] was “very favorable pharmacokinetics” throughout. In addition, the “activity in vivo as judged by accumulation of a biomarker (lip10) in the spleen” value in data set [4] is on record as “active in vivo”. In addition, the tumor invasion result in data set [5] is “inhibited”. In addition, in data set [6], the “inhibition of cathepsin B activity in endothelial cells, potency” value is on record as “single digit nanomolar potency”. Also, the angiogenesis result in data set [8] was “inhibited”. Moreover, the “bone pitting (histology, hematoxylin and eosin)” value in data set [9] (100 mg/kg SC once a day, nanoparticle-sized formulation in D5W) is on record as “reduced”. The “effect after drug washout” value in data set [9] (after 7 days of drug washout) is given as “without any significant effect”. In data set [9] (day 13, 100 mg/kg, daily, SC, compared to vehicle), the movement evoked pain entry is listed as “attenuated”. Moreover, the bone destruction entry in data set [9] (setting [14]) is recorded as “attenuated”. In addition, the “spontaneous pain in the form of Flinching” value in data set [9] (setting [14]) is given as “attenuated”. Further, the “spontaneous pain in the form of Guarding” value in data set [9] (day 14 and day 21, 100 mg/kg, daily, SC, compared to vehicle or zoledronate) is “attenuated”. In data set [9] (day 21, 100 mg/kg, daily, SC, days 7-21, compared to vehicle), the body weight entry was “retained weight as compared to vehicle”. In addition, in data set [10], the “cathepsin inhibitory profile on multiple cathepsin enzymes” value was “very high potency and selectivity”.

The record behind these values is patent US8680152B2, “Cathepsin inhibitors for the treatment of bone cancer and bone cancer pain” (Virobay, Inc., priority 2011, dated 2014).
